Results from patent EP0579806B1, “MEDICAMENT FOR THE TREATMENT AND/OR PROPHYLAXIS OF FOLATE METABOLISM DISORDERS” (Kragler, Peter, priority 1992, dated 1993).

Experiment: Red blood count and megakaryocyte function before and after therapy in HIV-positive patients
Format: in vivo, Mensch
Conditions: patients pretreated with a chain terminator, before therapy
Text: Folgende Laborparameter wurden vor und nach der Therapie an 23 HIV-positiven Patienten mit verschiedener klinischer Symptomatik bestimmt: • 1. Rotes Blutbild und Megakaryozytenfunktion • 2. Weißes Blutbild und Lymphozytensubpopulation • 3. Lymphozytenstimulation • 4. Proteine • a) Gesamteiweiß • b) Elektrophorese • c) Immunelektrophorese • d) zirkulierende Immunkomplexe (CIC) • 5. B12-Gehalt • a) Serum pg/ml • b) Erythrozyten pg/ml Zellen • c) mononukleäre Zellen pg/ml Zellen • 6. Folat-Gehalt • a) Serum ng/ml • b) Erythrozyten ng/ml Zellen • c) mononukleäre Zellen ng/ml Zellen • 7. HIV (Elisa) in Titerstufen • 8. HIV - Westernblot (P24-core, P55-gag, gP41-env, gP120-env, gP160-env) mit Bewertung der Banden von + bis ++++ • 9. β2-Mikroglobulin korreliert • a) mit der Aktivität der NK-Zellen (ADCC = antibody dependent cellmediated cytotoxicity) • b) mit der Aktivität der CD8- NK-Zellen • 10. Neopterin Zwischenprodukt der Reaktion GPT (Guanosintriphosphat) --> Tetrahydrobiopterin (Hydroxylierung von Phenylalanin, Tyrosin und Tryptophan) Die Bedeutung von Neopterin ist zur Zeit noch Gegenstand wissenschaftlicher Untersuchungen. • 11. Lysozym (Muramidase) Messung der Granulozytenaktivität • 12. Serologie sexuell übertragbarer Krankheiten (STD) […]

With `Cc1cn([C@H]2C[C@H](N=[N+]=[N-])[C@@H](CO)O2)c(=O)[nH]c1=O` [AZT, Azidothymidin] the “makrozytäre, hyperchrome Anämie (MCV, Hbe erhöht)” value was “noch ausgeprägter”.
